# The supplement of paper PMC10307832
# Tests used:
# Assay in all cases: relative viability (nuclei count vs DMSO), 5 days (fraction); higher = more cells survive
# [1] = compound: CCC1=CN=CN=C1N2CCN(CC2)CC3=NC4=C(N3)C=C(C=C4)C(F)(F)F
# Method in brief: (§1)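 Following overnight incubation at 37 °C, lung cancer cell lines in 1536-well plates were pinned with five library-drug doses (not always all listed) in √10 steps on vehicle-anchored plates. The cells then spent 5 days without medium change before a combined fix, permeabilisation and Hoechst stain, 4× imaging and MetaXpress nuclear counts. Viability is the treated-to-vehicle ratio of nuclei, taken as the median across plates. Only plates with control CV below 25% and at least one doubling passed.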
# [2] = compound: CCn1c(-c2nonc2N)nc2cnc(Oc3cccc(NC(=O)c4ccc(OCCN5CCOCC5)cc4)c3)cc21
# Method in brief: as §1
# Mirin = compound: N=C1NC(=O)/C(=C/c2ccc(O)cc2)S1 [Mirin]
# Method in brief: as §1
# [3] = compound: CCC1=CN=CN=C1N2CCN(CC2)CC3=NC4=C(N3)C=C(C=C4)C(F)(F)F + CC(=O)Nc1cccc(-n2c(=O)n(C3CC3)c(=O)c3c(Nc4ccc(I)cc4F)n(C)c(=O)c(C)c32)c1 [Trametinib] (partner 0.02 µM)
# Method in brief: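 Relative viability is defined as nuclei in treated wells over nuclei in vehicle wells. Duplicate plates were run and medians reported. Lung cancer cell lines in 1536-well plates were dosed by pin tool one day after seeding, with one drug or with a fixed anchor-drug dose plus five library-drug doses (not always all listed) in √10 steps, and nuclei were counted after 5 days.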
cell line,measurement,setting,value
UMC-11,relative viability,[1]; 0.04 µM,0.925
same,relative viability,[1]; 0.1265 µM,0.948
same,relative viability,[1]; 0.4 µM,0.933
same,relative viability,[1]; 1.265 µM,0.838
same,relative viability,[1]; 4 µM,0.888
same,relative viability,[2]; 0.04 µM,0.965
same,relative viability,[2]; 0.1265 µM,0.85
same,relative viability,[2]; 0.4 µM,0.481
same,relative viability,[2]; 1.265 µM,0.275
same,relative viability,[2]; 4 µM,0.236
same,relative viability,Mirin; 0.25 µM,1.01
same,relative viability,Mirin; 0.7906 µM,0.657
same,relative viability,Mirin; 2.5 µM,1.02
same,relative viability,Mirin; 7.906 µM,0.803
same,relative viability,Mirin; 25 µM,0.608
same,relative viability,[3]; first compound 0.04 µM,0.721
same,relative viability,[3]; first compound 0.1265 µM,0.592
same,relative viability,[3]; first compound 0.4 µM,0.671
same,relative viability,[3]; first compound 1.265 µM,0.514
same,relative viability,[3]; first compound 4 µM,0.721
